According to US11339144B2 (Navitor Pharmaceuticals, Inc., priority 2017, dated 2022):

Tests used:
[1] = target: HA-GST-Rheb (GTP-γ-S loaded) activating mTORC1 (Homo sapiens (Human), UniProt Q15382); test: Rheb-dependent in vitro kinase assay (Rheb-IVK; LanthaScreen or Western readout); format: biochemical; conditions: Rheb-dependent in vitro kinase assay; read-out: IVK IC50
Rheb = Rheb (Homo sapiens (Human), UniProt Q15382); test: Affinity Selection Mass Spectrometry (ASMS); format: binding; conditions: affinity (R3/R0) in Affinity Selection Mass Spectrometry assay
Chain of Rheb (Q15382 1-169 limits assumed): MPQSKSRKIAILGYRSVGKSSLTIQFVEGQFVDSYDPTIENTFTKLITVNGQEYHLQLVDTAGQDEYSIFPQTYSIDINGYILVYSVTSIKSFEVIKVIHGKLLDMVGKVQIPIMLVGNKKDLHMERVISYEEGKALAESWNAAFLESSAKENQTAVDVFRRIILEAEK
Description: Method 2 (Affinity Selection Mass Spectrometry
Protein: Rheb (19 KDa) in the following buffer: 20 mM Tris, pH 8.0, 200 mM NaCl, 2 mM DTT, 5 mM MgCl2 was prepared as under.
Human Rheb protein (I-169) was purified from BL21 (DE3) E. coli using a His-Smt-Rheb expression vector. The cell paste was lysed in lysis buffer (50 mM HEPES pH 7.5, 0.5 M NaCl, 5% Glycerol, 1% CHAPS, EDTA free protease inhibitor tablets, lysozyme to 1 mg/mL, benzonase 250U), sonicated, and purified on a HiTrap Ni Chelating Column (GE Healthcare) using the following buffer: 50 mM HEPES pH 7.5, 0.5 M NaCl, 5% Glycerol, and imidazole increasing in concentration from 5 mM to 500 mM. The His-Smt tag was cleaved using a U1p1 enzyme and dialyzed into 50 mM HEPES pH 7.5, 0.5 M NaCl, 5% Glycerol. The resultant protein was again purified on a Ni Chelating column to remove the U1p1 enzyme and His-Smt tag and then purified by size exclusion chromatography on a Sephacryl S-100 26/60 column into the following final buffer: 20 mM NaPhos pH 7.0, 100 mM NaCl, 5 mM MgCl2, 2 mM TCEP.
Concentrations: 60 μM Rheb, 180 μM GDP and 2 μM of each compound,
Ultrafiltration Filter (Sartorius, Germany) MW cutoff: 10 KDa
• (a) Sample preparation: Prepare sample for each group in 1.5 mL microcentrifuge tube according to the experimental design, total volume 550 μL. In a standard ASMS experiment there are two groups: Protein plus (P+L+) and protein minus (P−L+). • (b) Transfer 50 μL from the 550 μL to a vial as R0 sample. Incubate the rest solution for 30 min at room temperature. Then transfer the 500 μL into an ultrafiltration filter tube and centrifuge at 12×10^3 rpm for ˜10 min, leave about 50 μL solution (otherwise adjust this time). • (c) Add incubation buffer to the ultrafiltration filter tube to about 500 μL. Stir gently and centrifuge mixtures as above, leave about 50 μL solution. • (d) Repeat the step c. Transfer the remaining 50 μL upper layer solution to a new vial as R^3 sample. Sample Extraction: Add 150 μL MeCN to denature the protein completely. Centrifuge at 12×10^3 rpm for 5 min. Transfer the supernatant into LC-MS auto sampler vials for LC-MS analysis (5 uL injection).
Waters Acquity UPLC system, Waters ACQUITY UPLC BEH C18 column (2.1×50 mm, 1.7 μM); Mobile phase A: 0.1% formic acid solution, B: MeCN; 0.3 mL/min, 5 μL injection, gradient elution (Table 5).
Waters Synapt G1 Q-TOF system, positive or negative ion scan modes; Capillary voltage: 3.0 kV; Method: MSE; Mass range: m/z=100-1000; Source temperature: 120° C.; Desolvation temperature: 400° C.; Collision voltage: 35 V; Sampling Cone: 35 V; Extraction Cone: 4.0 V; Cone Gas: 50 L/h; Desolvation Gas: 800 L/h.

Chain of HA-GST-Rheb (GTP-γ-S loaded) activating mTORC1 (Q15382 1-181): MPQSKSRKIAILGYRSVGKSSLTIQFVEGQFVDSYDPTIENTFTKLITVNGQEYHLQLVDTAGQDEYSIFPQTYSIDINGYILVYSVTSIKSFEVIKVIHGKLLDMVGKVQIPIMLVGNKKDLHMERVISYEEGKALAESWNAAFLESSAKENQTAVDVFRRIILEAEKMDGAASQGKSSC

| SMILES | IC50 [1] [µM] | ASMS (R3/R0) (Rheb) |
| --- | --- | --- |
| CN1CCN(c2cccc(NC(=O)c3cc4c(Sc5ccc(Cl)cc5Cl)cc(Cl)c(Cl)c4[nH]3)c2)CC1 [I-33, 6,7-dichloro-4-(2,4-dichlorophenylthio)-N-(3-(4-methylpiperazin-1-yl)phenyl)-1H-indole-2-carboxamide] | < 10 | A (an affinity (R3/R0)>100%) |
| COCc1cc2c(Br)cc(Sc3ccc(Cl)c(Cl)c3)cc2n1Cc1ccc(C(=O)N(C)C)cc1 [I-34] | > 100 | B (an affinity (R3/R0) between 100% and 20%) |
| CN1CCC(CNC(=O)c2cc3c(Sc4ccc(Cl)cc4Cl)cc(Cl)c(Cl)c3[nH]2)CC1 [I-35, 6,7-dichloro-4-(2,4-dichlorophenylthio)-N-((1-methylpiperidin-4-yl)methyl)-1H-indole-2-carboxamide] | < 10 | A (an affinity (R3/R0)>100%) |
| O=C(O)c1ccc(CCn2c(C(=O)O)cc3c(Br)cc(Oc4ccccc4)cc32)cc1 [I-36] | > 100 | C (an affinity (R3/R0)<20%) |
| CN(C)C(=O)c1ccc(Cn2c(CN)cc3c(Br)cc(Sc4ccc(Cl)c(Cl)c4)cc32)cc1 [I-37] | > 100 | C (an affinity (R3/R0)<20%) |
| CNCc1cc2c(Br)cc(Sc3ccc(Cl)c(Cl)c3)cc2n1Cc1ccc(C(=O)N(C)C)cc1 [I-38] | > 100 | A (an affinity (R3/R0)>100%) |
| CN(C)Cc1cc2c(Br)cc(Sc3ccc(Cl)c(Cl)c3)cc2n1Cc1ccc(C(=O)N(C)C)cc1 [I-39] | > 100 | B (an affinity (R3/R0) between 100% and 20%) |
| CN(C)C(=O)c1cccc(Cn2c(C(=O)O)cc3c(Br)cc(Oc4ccccc4)cc32)c1 [I-40, 4-bromo-1-(3-(dimethylcarbamoyl)benzyl)-6-phenoxy-1H-indole-2-carboxylic acid] | 10 to 100 | C (an affinity (R3/R0)<20%) |
| O=C(O)c1cc2c(Oc3cccc4cnccc34)cc(Cl)cc2[nH]1 [I-41, 6-chloro-4-(isoquinolin-5-yloxy)-1H-indole-2-carboxylic acid] | 100 to 300 | C (an affinity (R3/R0)<20%) |
| O=C(O)c1ccc(Cn2c(C(=O)O)cc3c(Br)cc(Sc4ccc(Cl)c(Cl)c4)cc32)cc1 [I-42, 4-bromo-1-(4-carboxybenzyl)-6-(3,4-dichlorophenylthio)-1H-indole-2-carboxylic acid] | < 10 | B (an affinity (R3/R0) between 100% and 20%) |
| O=C(O)c1cc2c(Br)cc(Sc3ccc(Cl)c(Cl)c3)cc2n1Cc1ccc(C(=O)N2CCNCC2)cc1 [I-43] | > 100 | A (an affinity (R3/R0)>100%) |
| CC(C)(C)OC(=O)N1CCN(C(=O)c2ccc(Cn3c(C(=O)O)cc4c(Br)cc(Sc5ccc(Cl)c(Cl)c5)cc43)cc2)CC1 [I-44] | > 100 | B (an affinity (R3/R0) between 100% and 20%) |
| O=C(O)c1cc2c(Sc3ccc(Cl)cc3Cl)cc(Cl)c(Cl)c2[nH]1 [I-45, 6,7-dichloro-4-(2,4-dichlorophenylthio)-1H-indole-2-carboxylic acid] | < 10 | A (an affinity (R3/R0)>100%) |
| CN1CCC(N(C)C(=O)c2ccc(Cn3c(C(=O)O)cc4c(Br)cc(Oc5ccccc5)cc43)cc2)C1 (stereo not drawn) [I-46] | > 3 | C (an affinity (R3/R0)<20%) |
| O=C(O)c1cc2c(Cl)cc(-c3cc(Cl)cc(Cl)c3)cc2[nH]1 [I-47, 4-chloro-6-(3,5-dichlorophenyl)-1H-indole-2-carboxylic acid] | 10 to 100 | B (an affinity (R3/R0) between 100% and 20%) |
| O=C(O)c1cc2c(Cl)cc(-c3ccccc3)cc2[nH]1 [I-48, 4-chloro-6-phenyl-1H-indole-2-carboxylic acid] | 10 to 100 | C (an affinity (R3/R0)<20%) |
| O=C(O)c1cc2c(-c3cc(Cl)cc(Cl)c3)cc(Cl)cc2[nH]1 [I-49, 6-chloro-4-(3,5-dichlorophenyl)-1H-indole-2-carboxylic acid] | < 10 | B (an affinity (R3/R0) between 100% and 20%) |
| O=C(O)c1cc2c(Br)cc(Sc3ccc(Cl)c(Cl)c3)cc2n1Cc1ccc(C(=O)N(CCO)CCO)cc1 [I-50, 1-(4-(bis(2-hydroxyethyl)carbamoyl)benzyl)-4-bromo-6-(3,4-dichlorophenylthio)-1H-indole-2-carboxylic acid] | < 10 | B (an affinity (R3/R0) between 100% and 20%) |
| CN1CCN(C(=O)c2ccc(Cn3c(C(=O)O)cc4c(Br)cc(Sc5ccc(Cl)c(Cl)c5)cc43)cc2)CC1 [I-52, 4-bromo-6-(3,4-dichlorophenylthio)-1-(4-(4-methylpiperazine-1-carbonyl)benzyl)-1H-indole-2-carboxylic acid] | 10 to 100 | B (an affinity (R3/R0) between 100% and 20%) |
| CN1CCC(NC(=O)c2ccc(Cn3c(C(=O)O)cc4c(Br)cc(Oc5ccccc5)cc43)cc2)C1 (stereo not drawn) [I-53] | > 100 | B (an affinity (R3/R0) between 100% and 20%) |
| O=C(Nc1cccnc1)c1ccc(Cn2c(C(=O)O)cc3c(Br)cc(Oc4ccccc4)cc32)cc1 [I-56, 4-bromo-6-phenoxy-1-(4-(pyridin-3-ylcarbamoyl)benzyl)-1H-indole-2-carboxylic acid] | 10 to 100 | B (an affinity (R3/R0) between 100% and 20%) |
| Cc1cc(Sc2ccc(Cl)cc2)c2cc(C(=O)O)[nH]c2c1C [I-58, 4-(4-chlorophenylthio)-6,7-dimethyl-1H-indole-2-carboxylic acid] | 10 to 100 | B (an affinity (R3/R0) between 100% and 20%) |
| O=C(O)c1cc2c(OCc3ccc(Cl)cc3)cc(Cl)c(Cl)c2[nH]1 [I-60, 6,7-dichloro-4-(4-chlorobenzyloxy)-1H-indole-2-carboxylic acid] | 10 to 100 | B (an affinity (R3/R0) between 100% and 20%) |
| CC(C)(C)OC(=O)N1CCN(C(=O)c2ccc(Cn3c(C(=O)O)cc4c(Br)cc(Oc5ccccc5)cc43)cc2)CC1 [I-62] | > 100 | B (an affinity (R3/R0) between 100% and 20%) |

Next, values leading:

| IC50 [1] [µM] | ASMS (R3/R0) (Rheb) | SMILES |
| --- | --- | --- |
| 100 to 300 | C (an affinity (R3/R0)<20%) | O=C(O)c1cc2c(-c3ccccc3)cc(Cl)cc2[nH]1 [I-54, 6-chloro-4-phenyl-1H-indole-2-carboxylic acid] |
| 10 to 100 | C (an affinity (R3/R0)<20%) | CC(C)(O)CNC(=O)c1ccc(Cn2c(C(=O)O)cc3c(Br)cc(Oc4ccccc4)cc32)cc1 [I-55, 4-bromo-1-(4-(2-hydroxy-2-methylpropylcarbamoyl)benzyl)-6-phenoxy-1H-indole-2-carboxylic acid] |
| > 100 | A (an affinity (R3/R0)>100%) | CN1CCC[C@@H]1CNC(=O)c1cc2c(Br)cc(Sc3ccc(Cl)c(Cl)c3)cc2[nH]1 [I-57] |
| > 100 | C (an affinity (R3/R0)<20%) | O=C1CCc2ccc(Oc3cc(Cl)cc4[nH]c(CO)cc34)cc2N1 [I-59] |
| > 100 | C (an affinity (R3/R0)<20%) | O=C(O)c1cc2c(Br)cc(Oc3ccccc3)cc2n1Cc1ccc(C(=O)N2CCNCC2)cc1 [I-61] |
| > 100 | A (an affinity (R3/R0)>100%) | O=C(Nc1ncc[nH]1)c1cc2c(Sc3ccc(Cl)cc3)cc(Cl)cc2[nH]1 [I-63] |
